Test results taken from patent US20260001928A1 (CORTERIA PHARMACEUTICALS, priority 2022, published 2026).
*1 amine or outer side, *2 acyl side, *3 side chain or, on linkers, in order; H or OH if unused. Where a SMILES comes first, the peptide text is derived from it. Side-chain parts run from the residue outwards. [ ]: non-standard residue; d: D form. The star is where a group is joined. C18 diacid = O=C(O)CCCCCCCCCCCCCCCCC(=O)*; γGlu = O=C(O)[C@H](CCC(=O)[*:2])N[*:1]; NMeI = CC[C@H](C)[C@H](NC)C(=O)O; αMeL = CC(C)C[C@](C)(N)C(=O)O; Api = NC1(C(=O)O)CCNCC1; Abu = CC[C@H](N)C(=O)O; Dap = NC[C@H](N)C(=O)O; AEEA = NCCOCCOCC(=O)O

Legend:
CFR1R receptor = molecular target: T1, CFR1R receptor (Homo sapiens, UniProt P34998); experiment: Activity at anti-target CFR1R receptor, cAMP assay in CRF1R-overexpression CHO-K1 cells; assay type: cell-based; details: 100% = Sauvagine at 100 nM; for EC50: cAMP
T1 construct: host or cells: CHO-K1 (clone 2)
T1 sequence (P34998 24-415): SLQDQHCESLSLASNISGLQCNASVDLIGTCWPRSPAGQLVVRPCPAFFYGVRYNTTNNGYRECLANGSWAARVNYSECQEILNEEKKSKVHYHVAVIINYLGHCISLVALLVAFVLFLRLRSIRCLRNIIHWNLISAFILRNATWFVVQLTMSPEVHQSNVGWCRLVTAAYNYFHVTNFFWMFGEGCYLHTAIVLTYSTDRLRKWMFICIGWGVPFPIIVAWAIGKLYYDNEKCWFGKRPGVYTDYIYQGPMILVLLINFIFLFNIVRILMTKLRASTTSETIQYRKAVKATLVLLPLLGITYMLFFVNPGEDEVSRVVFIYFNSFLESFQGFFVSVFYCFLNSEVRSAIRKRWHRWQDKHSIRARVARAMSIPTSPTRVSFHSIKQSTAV
Summary of the method: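 Run as for the TeloHAEC line, except the full-activation control well received Sauvagine (100 nM) and final density was 4000 cells/well. Cells from clone 2 came from frozen aliquots of near-confluent cultures.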

human CRF2a receptor = molecular target: T2, human CRF2a receptor (Homo sapiens, UniProt Q13324); experiment: Activity at human CRF2a receptor, cAMP functional assay in TeloHEAC cells; assay type: cell-based; details: TeloHEAC cells stably expressing human CRF2a receptor, relative to urocortin 2 (100 nM = 100%)
T2 construct: expressed in transfected cells; host or cells: TeloHEAC cells
T2 sequence (Q13324 1-411): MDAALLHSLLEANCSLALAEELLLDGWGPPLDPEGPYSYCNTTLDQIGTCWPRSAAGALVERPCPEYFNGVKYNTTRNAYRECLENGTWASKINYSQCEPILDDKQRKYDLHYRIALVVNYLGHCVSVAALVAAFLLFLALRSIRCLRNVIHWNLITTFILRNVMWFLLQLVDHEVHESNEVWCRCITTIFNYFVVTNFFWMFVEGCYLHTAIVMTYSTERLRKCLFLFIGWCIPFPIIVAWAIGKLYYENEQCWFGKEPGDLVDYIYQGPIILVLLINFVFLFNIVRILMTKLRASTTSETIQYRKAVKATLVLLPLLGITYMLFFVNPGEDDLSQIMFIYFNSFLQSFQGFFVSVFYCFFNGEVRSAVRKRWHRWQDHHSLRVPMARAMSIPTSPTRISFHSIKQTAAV
Summary of the method: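 TeloHEAC cells stably expressing human CRF2a (10000 cells/well, suspended in HBSS/20 mM HEPES with 2 mM IBMX) were exposed to compounds for 30 min at 37 °C. cAMP was read as the 665/620 nm fluorescence ratio after 1 h at room temperature. EC50 was derived relative to 100 nM urocortin 2, set as 100%.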

| Structure (SMILES) | Emax (% I) (CFR1R receptor) | EC50 (CFR1R receptor) [nM] | EC50 (human CRF2a receptor) [nM] |
| --- | --- | --- | --- |
| CC[C@H](C)[C@H](NC)C(=O)N[C@H](C(=O)N[C@@H](CC(C)C)C(=O)N[C@@H](CO)C(=O)N[C@@H](CC(C)C)C(=O)N[C@@H](CC(=O)O)C(=O)N[C@@H](C(=O)N1CCC[C@H]1C(=O)N[C@H](C(=O)N[C@@H](CCCCN)C(=O)N[C@@H](CC(C)C)C(=O)N[C@@H](CCCCNC(=O)COCCOCCNC(=O)COCCOCCNC(=O)CC[C@H](NC(=O)CCCCCCCCCCCCCCCCC(=O)O)C(=O)O)C(=O)N[C@@H](CCCCN)C(=O)N[C@H](C(=O)N[C@@H](CC(C)C)C(=O)N[C@@H](CC(C)C)C(=O)N[C@@H](CCC(=O)O)C(=O)N[C@@H](CCC(N)=O)C(=O)N[C@@H](CCC(=O)O)C(=O)N[C@@H](CCCCN)C(=O)N[C@@H](CCC(N)=O)C(=O)N[C@@H](CCCCN)C(=O)N[C@@H](CCCCN)C(=O)N[C@@H](CCC(N)=O)C(=O)N[C@@H](CCCNC(=N)N)C(=O)N[C@@H](CCC(=O)O)C(=O)N[C@@H](CCC(N)=O)C(=O)N[C@@H](C)C(=O)N[C@@H](CCC(=O)O)C(=O)N[C@H](C(=O)N[C@@H](CC(N)=O)C(=O)N[C@@H](CCC(=O)O)C(=O)N[C@@H](CCC(N)=O)C(=O)N[C@H](C(=O)N[C@@H](CC(C)C)C(=O)N[C@@H](C)C(=O)N[C@@H](CCC(N)=O)C(=O)N[C@H](C(N)=O)C(C)C)[C@@H](C)CC)[C@@H](C)O)[C@@H](C)CC)[C@@H](C)CC)C(C)C)C(C)C [compound 116] (H-[NMeI]VLSLD[dV]PIKLK([AEEA-AEEA-γGlu-C18 diacid])KILLEQEKQKKQREQAETNEQILAQV-NH2) | 0 | > 250 | 0.37 |
| CC[C@H](C)[C@H](NC)C(=O)N[C@H](C(=O)N[C@@H](CC(C)C)C(=O)N[C@@H](CO)C(=O)N[C@@H](CC(C)C)C(=O)N[C@@H](CC(=O)O)C(=O)N[C@@H](C(=O)N1CCC[C@H]1C(=O)N[C@H](C(=O)N[C@@H](CCCCN)C(=O)N[C@@H](CC(C)C)C(=O)N[C@@H](CCCCNC(=O)COCCOCCNC(=O)COCCOCCNC(=O)CC[C@H](NC(=O)CCCCCCCCCCCCCCCCC(=O)O)C(=O)O)C(=O)N[C@@H](CCCCN)C(=O)N[C@H](C(=O)N[C@@H](CC(C)C)C(=O)N[C@@H](CC(C)C)C(=O)N[C@@H](CCC(=O)O)C(=O)N[C@@H](CCC(N)=O)C(=O)N[C@@H](CCC(=O)O)C(=O)N[C@@H](CCCCN)C(=O)N[C@@H](CCC(N)=O)C(=O)N[C@@H](CCCCN)C(=O)N[C@@H](CCCCN)C(=O)N[C@@H](CCC(N)=O)C(=O)N[C@@H](CCCNC(=N)N)C(=O)N[C@@H](CCC(=O)O)C(=O)N[C@@H](CCC(N)=O)C(=O)N[C@@H](C)C(=O)N[C@@H](CCC(=O)O)C(=O)N[C@H](C(=O)N[C@@H](CC(N)=O)C(=O)NC1(C(=O)N[C@@H](CCC(N)=O)C(=O)N[C@H](C(=O)N[C@@H](CC(C)C)C(=O)N[C@@H](C)C(=O)N[C@@H](CCC(N)=O)C(=O)N[C@H](C(N)=O)C(C)C)[C@@H](C)CC)CCNCC1)[C@@H](C)O)[C@@H](C)CC)[C@@H](C)CC)C(C)C)C(C)C [compound 117] (H-[NMeI]VLSLD[dV]PIKLK([AEEA-AEEA-γGlu-C18 diacid])KILLEQEKQKKQREQAETN[Api]QILAQV-NH2) | 3 | > 250 | 0.63 |

Continued, values first:

| Emax (% I) (CFR1R receptor) | EC50 (CFR1R receptor) [nM] | EC50 (human CRF2a receptor) [nM] | Structure (SMILES) |
| --- | --- | --- | --- |
| 3 | > 250 | 0.28 | CC[C@H](C)[C@H](NC(C)=O)C(=O)N[C@H](C(=O)N[C@@H](CC(C)C)C(=O)N[C@@H](CO)C(=O)N[C@@H](CC(C)C)C(=O)N[C@@H](CC(=O)O)C(=O)N[C@@H](C(=O)N1CCC[C@H]1C(=O)N[C@H](C(=O)N[C@@H](CCCCN)C(=O)N[C@@](C)(CC(C)C)C(=O)N[C@@H](CCCCNC(=O)COCCOCCNC(=O)COCCOCCNC(=O)CC[C@H](NC(=O)CCCCCCCCCCCCCCCCC(=O)O)C(=O)O)C(=O)N[C@@H](CCCCN)C(=O)N[C@H](C(=O)N[C@@H](CC(C)C)C(=O)N[C@@H](CC(C)C)C(=O)N[C@@H](CCC(=O)O)C(=O)N[C@@H](CCC(N)=O)C(=O)N[C@@H](CCC(=O)O)C(=O)N[C@@H](CCCCN)C(=O)N[C@@H](CCC(N)=O)C(=O)N[C@@H](CCCCN)C(=O)N[C@@H](CCCCN)C(=O)N[C@@H](CCC(N)=O)C(=O)N[C@@H](CCCNC(=N)N)C(=O)N[C@@H](CCC(=O)O)C(=O)N[C@@H](CCC(N)=O)C(=O)N[C@@H](C)C(=O)N[C@@H](CCC(=O)O)C(=O)N[C@H](C(=O)N[C@@H](CC(N)=O)C(=O)N[C@@H](C)C(=O)N[C@@H](CCC(N)=O)C(=O)N[C@H](C(=O)N[C@@H](CC(C)C)C(=O)N[C@@H](C)C(=O)N[C@@H](CCC(N)=O)C(=O)N[C@H](C(N)=O)C(C)C)[C@@H](C)CC)[C@@H](C)O)[C@@H](C)CC)[C@@H](C)CC)C(C)C)C(C)C [compound 112] (Ac-IVLSLD[dV]PIK[αMeL]K([AEEA-AEEA-γGlu-C18 diacid])KILLEQEKQKKQREQAETNAQILAQV-NH2) |
| 6 | > 250 | 0.18 | CC[C@H](NC(=O)[C@H](CC(N)=O)NC(=O)[C@@H](NC(=O)[C@H](CCC(=O)O)NC(=O)[C@H](C)NC(=O)[C@H](CCC(N)=O)NC(=O)[C@H](CCC(=O)O)NC(=O)[C@H](CCCNC(=N)N)NC(=O)[C@H](CCC(N)=O)NC(=O)[C@H](CCCCN)NC(=O)[C@H](CCCCN)NC(=O)[C@H](CCC(N)=O)NC(=O)[C@H](CCCCN)NC(=O)[C@H](CCC(=O)O)NC(=O)[C@H](CCC(N)=O)NC(=O)[C@H](CCC(=O)O)NC(=O)[C@H](CC(C)C)NC(=O)[C@H](CC(C)C)NC(=O)[C@@H](NC(=O)[C@H](CCCCN)NC(=O)[C@H](CCCCNC(=O)COCCOCCNC(=O)COCCOCCNC(=O)CC[C@H](NC(=O)CCCCCCCCCCCCCCCCC(=O)O)C(=O)O)NC(=O)[C@H](CC(C)C)NC(=O)[C@H](CCCCN)NC(=O)[C@@H](NC(=O)[C@@H]1CCCN1C(=O)[C@H](NC(=O)[C@H](CC(=O)O)NC(=O)[C@H](CC(C)C)NC(=O)[C@H](CO)NC(=O)[C@H](CC(C)C)NC(=O)[C@@H](NC(=O)[C@@H](NC)[C@@H](C)CC)C(C)C)C(C)C)[C@@H](C)CC)[C@@H](C)CC)[C@@H](C)O)C(=O)N[C@@H](CCC(N)=O)C(=O)N[C@H](C(=O)N[C@@H](CC(C)C)C(=O)N[C@@H](C)C(=O)N[C@@H](CCC(N)=O)C(=O)N[C@H](C(N)=O)C(C)C)[C@@H](C)CC [compound 114] (H-[NMeI]VLSLD[dV]PIKLK([AEEA-AEEA-γGlu-C18 diacid])KILLEQEKQKKQREQAETN[Abu]QILAQV-NH2) |
| 4 | > 250 | 0.76 | CC[C@H](C)[C@H](NC)C(=O)N[C@H](C(=O)N[C@@H](CC(C)C)C(=O)N[C@@H](CO)C(=O)N[C@@H](CC(C)C)C(=O)N[C@@H](CC(=O)O)C(=O)N[C@@H](C(=O)N1CCC[C@H]1C(=O)N[C@H](C(=O)N[C@@H](CCCCN)C(=O)N[C@@H](CC(C)C)C(=O)N[C@@H](CCCCNC(=O)COCCOCCNC(=O)COCCOCCNC(=O)CC[C@H](NC(=O)CCCCCCCCCCCCCCCCC(=O)O)C(=O)O)C(=O)N[C@@H](CCCCN)C(=O)N[C@H](C(=O)N[C@@H](CC(C)C)C(=O)N[C@@H](CC(C)C)C(=O)N[C@@H](CCC(=O)O)C(=O)N[C@@H](CCC(N)=O)C(=O)N[C@@H](CCC(=O)O)C(=O)N[C@@H](CCCCN)C(=O)N[C@@H](CCC(N)=O)C(=O)N[C@@H](CCCCN)C(=O)N[C@@H](CCCCN)C(=O)N[C@@H](CCC(N)=O)C(=O)N[C@@H](CCCNC(=N)N)C(=O)N[C@@H](CCC(=O)O)C(=O)N[C@@H](CCC(N)=O)C(=O)N[C@@H](C)C(=O)N[C@@H](CCC(=O)O)C(=O)N[C@H](C(=O)N[C@@H](CC(N)=O)C(=O)N[C@@H](CN)C(=O)N[C@@H](CCC(N)=O)C(=O)N[C@H](C(=O)N[C@@H](CC(C)C)C(=O)N[C@@H](C)C(=O)N[C@@H](CCC(N)=O)C(=O)N[C@H](C(N)=O)C(C)C)[C@@H](C)CC)[C@@H](C)O)[C@@H](C)CC)[C@@H](C)CC)C(C)C)C(C)C [compound 115] (H-[NMeI]VLSLD[dV]PIKLK([AEEA-AEEA-γGlu-C18 diacid])KILLEQEKQKKQREQAETN[Dap]QILAQV-NH2) |
